According to patent publication US6140120A, “Regulated transcription of targeted genes and other biological events” (Board of Trustees of Leland Stanford Jr. University, priority 1998, dated 2000):
Entries after “also recorded” stand apart in the source; their conditions may differ. Read-outs that look alike come from different tables or passages of the source.

What was measured:
cell culture = assay: Toxicity in cell culture; type: cell-based
[1] = system: myristoylated chimeric CD3/FKBP12 (MZF3E) receptor; assay: NFAT-SEAP reporter through myristoylated chimeric CD3/FKBP12 (MZF3E) receptor; type: cell-based, human
Description: In an illustrative case, this was accomplished by creating an intracellular receptor comprised of a small fragment of Src sufficient for posttranslational myristoylation (M), the cytoplasmic tail of zeta (Z; a component of the […] was also used), three consecutive FKBP12s (F3) and a flu epitope tag (E). Upon expressing the construct MZF3E (FIG. 18) in human (Jurkat) T cells, we confirmed that the encoded chimeric protein underwent FK1012-mediated oligomerization. The attendant aggregation of the zeta chains led to signaling via the endogenous TCR-signaling pathway (FIG. 15), as evidenced by secretion of alkaline phosphatase (SEAP) in response to an FK1012 (EC50 =50 nM). The promoter of the SEAP reporter gene was constructed to be transcriptionally activated by nuclear factor of activated T cells (NFAT), which is assembled in the nucleus following TCR-signaling.
Specifically, 5 μg of the eukaryotic expression vector, pBJ5, containing a myristoylated chimeric receptor was co-transfected with 4 μg NFAT-SX. MZE, MZF1E, MZF2E and MZF3E contain 0,1, 2, or 3 copies of FKBP12, respectively, downstream of a myristoylated CD3 cytoplasmic domain (see FIG. 2). As a control, 5 μg of pBJ5 was used in a parallel transfection. After 24 hours, aliquots of each transfection containing approximately 10^5 cells were incubated with log dilutions of the drug, FK1012B, as indicated. As a positive control and to control for transfection efficiency, ionomycin (1 μm) and PMA (25 ng/ml) were added to aliquots from each transfection. After an additional 12 hour incubation, the supernatants were assayed for alkaline phosphatase activity and these activities were expressed relative to that of the positive control samples. […] Compare FIGS. 7 and 8.

[2] = system: chimeric FKBP12/CD3 (1FK3) receptor; assay: NFAT-SEAP reporter through chimeric FKBP12/CD3 (1FK3) receptor; type: cell-based, human; conditions: 2 ng/ml FK506; FK1012A-stimulated
Description: 5 μg of the eukaryotic expression vector, pBJ5, (based on pCDL-SR with a polylinker inserted between the 16S splice site and the poly A site), containing the chimeric receptor (1FK3), was co-transfected with 4 μg of the NFAT-inducible secreted alkaline phosphatase reporter plasmid, NFAT-SX. As a control, 5 μg of pBJ5 was used, instead of 1FK3/pBJ5, in a parallel transfection. After 24 hours, aliquots of each transfection containing approximately 10^5 cells were incubated with log dilutions of the drug, FK1012A, as indicated. As a positive control and to control for transfection efficiency, ionomycin (1 μm) and PMA (25 ng/ml) were added to aliquots from each transfection. After an additional 14 hour incubation, the supernatants were assayed for alkaline phosphatase activity and these activities were expressed relative to that of the positive control samples.

[3] = system: TAC/TAC/Z (TTZ) chimeric receptor; IL-2 enhancer/NFAT reporter in TAg Jurkat cells; assay: SEAP reporter induction through chimeric receptor TAC/TAC/Z (TTZ); type: cell-based, human; conditions: 1 ng/ml FK506
Description: As a positive control and to control for transfection efficiency, ionomycin (1 μm) and PMA (25 ng/ml) were added to aliquots from each transfection.

calcineurin = conditions: complex with cyclophilin or FKBP12; cited from earlier work
[4] = system: MZF3E chimera in Jurkat T cells; assay: Co-immunoprecipitation of MZF3Eflu with MZF3Eflag (induced dimerization); type: cell-based, human; conditions: 1 μM
MZF1Eflu and MZF1Eflag = assay: Co-immunoprecipitation of FKBP monomer constructs MZF1E; type: cell-based, human
[5] = system: T cell receptor zeta chain / MZF3E in Jurkat cells; assay: Recruitment of kinase activity to zeta-chain (in vitro kinase assay after immunoprecipitation) and tyrosine phosphorylation; type: cell-based, human; conditions: Jurkat cells stably transfected with MZF3E
Description: FK1012-induced protein-tyrosine phosphorylation. The intracellular domains of the TCR, CD3 and zeta-chains interact with cytoplasmic protein tyrosine kinases following antigen stimulation. Specific members of the Src family (lck and/or fyn) phosphorylate one or more tyrosine residues of activation motifs within these intracellular domains (tyrosine activation motif, TAM). The tyrosine kinase ZAP-70 is recruited (via its two SH2 domains) to the tyrosine phosphorylated T-cell-receptor, activated, and is likely to be involved in the further downstream activation of phospholipase C. […] Tyrosine phosphorylation after treatment of cells with either anti-CD3 MAb or FK1012 was detected using monoclonal alpha-phosphotyrosine antibodies. Whole cell lysates were analysed at varying times after stimulation. […] The pattern consisted of a major band of 70 kDa, probably ZAP-70, and minor bands of 120 kDa, 62 kDa, 55 kDa and 42 kDa.

ΔMFF3E = assay: Apoptosis with non-myristoylated construct ΔMFF3E; type: cell-based; conditions: ΔMFF3E vs. myristoylated construct
[6] = system: FKBP12-Fas antigen chimera in D10 T cells; assay: Apoptosis through FKBP12-Fas chimera in D10 T cells; type: cell-based; conditions: murine D10 T cells
Description: (§1) A chimeric cDNA has been constructed consisting of three FKBP12 domains fused to the cytoplasmic signaling domain of the Fas antigen (FIG. 20). […] Since the stable transfectants represent a homogeneous population of cells, they have been used to ascertain that death is due to apoptosis rather than necrosis (membrane blebbing, nucleosomal DNA fragmentation). However, the transient transfection protocol requires much less work and has therefore been used as an initial assay system, as described below.

FKBP12 = FKBP12 (Homo sapiens, UniProt P62942); assay: Binding of FK1012s, stoichiometry and Kd; conditions: 2:1 binding stoichiometry
[7] = system: Fas-FKBP12 fusion protein (MFF3E) in Jurkat T cells; assay: Cell death/apoptosis through Fas-FKBP12 fusion MFF3E in Jurkat T cells; type: cell-based; conditions: human Jurkat T cells
Description: FIG. 21B depicts Immunphilin-Fas antigen chirneras and results of transient expression experiments in Jurkat T cells stably transformed with large T-antigen. Myr: the myristylation sequence taken from pp60^c-src encoding residues 1-14 (Wilson et al, Mol & Cell Biol 9 4 (1989): 1536-44); FKBP: human FKBP12; CypC: murine cyclophilin C sequence encoding residues 36-212 (Freidman et al, Cell 66 4 (1991): 799-806); Fas: intracellular domain of human Fas antigen encoding residues 179-319 (Oehm et al, J Biol Chem 267 15 (1992): 10709-15). Cells were electroporated with a plasmid encoding a secreted alkaline phosphatase reporter gene under the control of 3 tandem API promoters along with a six fold molar excess of the immunophilin fusion construct. After 24 h the cells were stimulated with PMA (50 ng/mL), which stimulates the synthesis of the reporter gene, and (CsA)2. At 48 h the cells were assayed for reporter gene activity. Western blots were performed at 24 h using anti-HA epitope antibodies.
as §1, with “However, the transient transfection protocol requires much less work and has therefore been used as an initial assay system, as described below.” left out

[8] = system: calcineurin-mediated TCR signaling; assay: Inhibition of calcineurin-mediated TCR signaling / immunosuppression; type: cell-based; conditions: listed as FK1012s

Sequence of FKBP12 (P62942 whole entry, the tested form may be a part): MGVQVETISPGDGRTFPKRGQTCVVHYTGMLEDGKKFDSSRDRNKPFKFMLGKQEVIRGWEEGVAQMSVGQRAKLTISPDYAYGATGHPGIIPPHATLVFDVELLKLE

In the case of `CO[C@H]1C[C@@H](C)C/C(C)=C/[C@@H](CCOC(=O)NCc2ccccc2)C(=O)C[C@H](O)[C@@H](C)[C@@H](/C(C)=C/[C@@H]2CC[C@@H](O)[C@H](OC)C2)OC(=O)[C@@H]2CCCCN2C(=O)C(=O)[C@]2(O)O[C@H]1[C@@H](OC)C[C@H]2C` [FK506-M], the “toxicity of monomeric ligand” value (cell culture; in words) is reported as “nontoxic” and the “termination of FK1012-induced signaling” value ([1]; monomeric ligand) is reported as “FK1012-induced signaling can be terminated”.

For `C=CC[C@@H]1/C=C(\C)C[C@H](C)C[C@H](OC)[C@H]2O[C@@](O)(C(=O)C(=O)N3CCCC[C@H]3C(=O)O[C@H](/C(C)=C/[C@@H]3CC[C@@H](O)[C@H](OC)C3)[C@H](C)[C@@H](O)CC1=O)[C@H](C)C[C@@H]2OC` [FK506], the “stimulation of NFAT reporter on addition of FK506” value [2] is listed as “dropped all stimulations to background levels”, the “response of NFAT reporter on addition of FK506” value [3] is listed as “dropped all activity due to NFAT to background levels” and the “binding to / inactivation of calcineurin as immunophilin complex” value (calcineurin) is listed as “binds with high affinity to calcineurin”. The “stimulation of NFAT reporter on addition of FK506” value ([1]; 1 ng/ml FK506, FK1012B-stimulated) was “dropped all stimulations to near background levels”.

With `CO[C@H]1C[C@@H](C)C/C(C)=C/[C@@H](CCOC(=O)NCc2ccc(CNC(=O)OCC[C@@H]3/C=C(\C)C[C@H](C)C[C@H](OC)[C@H]4O[C@@](O)(C(=O)C(=O)N5CCCC[C@H]5C(=O)O[C@H](/C(C)=C/[C@@H]5CC[C@@H](O)[C@H](OC)C5)[C@H](C)[C@@H](O)CC3=O)[C@H](C)C[C@@H]4OC)cc2)C(=O)C[C@H](O)[C@@H](C)[C@@H](/C(C)=C/[C@@H]2CC[C@@H](O)[C@H](OC)C2)OC(=O)[C@@H]2CCCCN2C(=O)C(=O)[C@]2(O)O[C@H]1[C@@H](OC)C[C@H]2C` [FK1012A] the “coimmunoprecipitation of MZF3Eflu with MZF3Eflag” value [4] was “interacts with MZF3Eflu and is coimmunoprecipitated with MZF3Eflag”, the “dimerization of FKBP monomer constructs” value (MZF1Eflu and MZF1Eflag) was “also dimerized” and the “recruitment of kinase activity to the zeta-chain” value [5] was “recruitment of kinase activity to the zeta-chain”.

In the case of FK1012, the “potency of mutated construct as inducer of FK1012-dependent apoptosis” value (ΔMFF3E) is reported as “equally potent”, the induction of apoptosis [6] is reported as “FK1012-dependent apoptosis” and the Kd (FKBP12; read-out: Kd (1)) is reported as 100 pM. The Kd (FKBP12; read-out: Kd (2)) was 800 pM, the toxicity (cell culture; FK1012s: up to 0.1 mM in cell culture) was “nor toxic (up to 0.1 mM in cell culture)” and the “induction of cell death / apoptosis” value [7] was “FK1012-dependent apoptosis; also recorded: cell death of the Jurkat T-cell line”. The inhibition of signaling [8] was “does not inhibit signaling pathways; also recorded: do not inhibit calcineurin-mediated TCR signaling” and the EC50 ([1]; Jurkat T cells expressing MZF3E, read-out: EC50, secretion of alkaline phosphatase (SEAP)) was 50000 pM.
